Assay results reported in ChEMBL document CHEMBL1201862, “PubChem BioAssay data set” (2004).
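Compound exposure: 48 hours, 5 concentrations, 96-well plates. The concentration for 50% growth inhibition is given as GI50.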 The source made the active and inactive calls. Rule as the data show it: active = GI50 up to about 1.1 µM and inactive = higher.

Tests used:
Experiment in all cases: NCI anticancer screen, dose series, 48 h
SK-MEL-2 = test system: SK-MEL-2
HT-29 = test system: HT-29
SF-268 = test system: SF-268
BT-549 = test system: BT-549
RXF 393 = test system: RXF 393
MDA-MB-231 = test system: MDA-MB-231
DU-145 = test system: DU-145
SW-620 = test system: SW-620
NCI/ADR-RES = test system: NCI/ADR-RES
SNB-75 = test system: SNB-75
MDA-MB-435 = test system: MDA-MB-435
HCT-116 = test system: HCT-116
IGROV-1 = test system: IGROV-1
UACC-257 = test system: UACC-257
T47D = test system: T47D
ACHN = test system: ACHN
LOX IMVI = test system: LOX IMVI
K562 = test system: K562
Hs-578T = test system: Hs-578T
SNB-19 = test system: SNB-19

Measured: GI50

C/C=C/[C@@H]1[C@H]2C(=O)[C@]3(Cl)[C@@H](/C=C/C)[C@@H]3C(=O)[C@@]12Cl
inactive: SK-MEL-2 > 100 µM | HT-29 > 100 µM | SF-268 > 100 µM | BT-549 > 100 µM | RXF 393 55.3 µM | MDA-MB-231 94.2 µM | DU-145 > 100 µM | SW-620 > 100 µM | NCI/ADR-RES > 100 µM | SNB-75 53.3 µM | MDA-MB-435 > 100 µM | HCT-116 > 100 µM | IGROV-1 > 100 µM | UACC-257 > 100 µM | T47D > 100 µM | ACHN > 100 µM | LOX IMVI > 100 µM | K562 > 100 µM | Hs-578T 35.2 µM | SNB-19 > 100 µM

C[N+]12C=CC=C1C(N1CCCC1)c1scc(-c3ccc(Br)cc3)c12 (stereo not given)
inactive: SK-MEL-2 6.18 µM | HT-29 22.2 µM | SF-268 3.15 µM | BT-549 1.79 µM | RXF 393 10.2 µM | MDA-MB-231 23.9 µM | DU-145 33.7 µM | SW-620 41.2 µM | NCI/ADR-RES > 100 µM | SNB-75 3.1 µM | MDA-MB-435 24 µM | HCT-116 30.9 µM | IGROV-1 4.58 µM | UACC-257 7.36 µM | T47D 4.61 µM | ACHN > 88.9 µM | LOX IMVI 25.5 µM | K562 6.7 µM | Hs-578T 1.98 µM | SNB-19 4.22 µM

CNC1Cc2c[nH]c3cccc(c23)C12C=C(C)C(=O)O2 (stereo not given)
inactive: SK-MEL-2 > 100 µM | HT-29 > 100 µM | SF-268 > 100 µM | BT-549 > 100 µM | RXF 393 > 100 µM | MDA-MB-231 > 100 µM | DU-145 > 100 µM | SW-620 > 100 µM | NCI/ADR-RES > 100 µM | SNB-75 > 100 µM | MDA-MB-435 > 100 µM | HCT-116 > 100 µM | IGROV-1 > 100 µM | UACC-257 > 100 µM | T47D > 100 µM | ACHN > 100 µM | LOX IMVI > 100 µM | K562 > 100 µM | Hs-578T > 100 µM | SNB-19 > 100 µM

O=[N+]([O-])c1ccc(C2=Nn3c(nnc3-c3ccc(Cl)cc3)SC2)o1
inactive: SK-MEL-2 10.5 µM | HT-29 3.22 µM | SF-268 10.8 µM | BT-549 11.4 µM | RXF 393 11.5 µM | MDA-MB-231 3.24 µM | DU-145 19.2 µM | SW-620 2.37 µM | NCI/ADR-RES 14.3 µM | SNB-75 11.5 µM | MDA-MB-435 2.08 µM | HCT-116 5.71 µM | IGROV-1 6 µM | UACC-257 7.38 µM | T47D 5.45 µM | ACHN 13.9 µM | LOX IMVI 3.93 µM | K562 2.16 µM | Hs-578T 5.83 µM | SNB-19 13.3 µM

CC1(C)OC1COc1c2occc2cc2ccc(=O)oc12 (stereo not given)
inactive: SK-MEL-2 > 100 µM | HT-29 > 100 µM | SF-268 > 100 µM | BT-549 38.8 µM | RXF 393 > 100 µM | MDA-MB-231 > 100 µM | DU-145 > 100 µM | SW-620 > 100 µM | NCI/ADR-RES > 100 µM | SNB-75 > 100 µM | MDA-MB-435 > 100 µM | HCT-116 > 100 µM | IGROV-1 > 100 µM | UACC-257 > 100 µM | T47D 79.1 µM | ACHN > 100 µM | LOX IMVI > 100 µM | K562 > 100 µM | Hs-578T > 100 µM | SNB-19 > 100 µM

C=CCCON(C(=O)OC(C)(C)C)C(C)(C)C
inactive: SK-MEL-2 > 100 µM | HT-29 > 100 µM | SF-268 > 100 µM | BT-549 > 100 µM | RXF 393 > 100 µM | MDA-MB-231 > 100 µM | DU-145 > 100 µM | SW-620 > 100 µM | NCI/ADR-RES > 100 µM | SNB-75 > 100 µM | MDA-MB-435 > 100 µM | HCT-116 > 100 µM | IGROV-1 > 100 µM | UACC-257 > 100 µM | T47D > 100 µM | ACHN > 100 µM | LOX IMVI > 100 µM | K562 > 100 µM | Hs-578T > 100 µM | SNB-19 > 100 µM

CC(=O)OCCOc1cc2c([nH]c3ccccc32)c(C)c2cccc1-2
inactive: SK-MEL-2 2.21 µM | HT-29 3.78 µM | SF-268 2.47 µM | BT-549 2.75 µM | RXF 393 1.95 µM | MDA-MB-231 1.66 µM | DU-145 4.16 µM | SW-620 2.7 µM | NCI/ADR-RES 3.53 µM | SNB-75 1.71 µM | MDA-MB-435 2.29 µM | HCT-116 3.3 µM | IGROV-1 1.77 µM | UACC-257 1.91 µM | T47D 1.92 µM | ACHN 1.75 µM | LOX IMVI 2.61 µM | K562 1.36 µM | Hs-578T 3.47 µM | SNB-19 3.3 µM
